Measurements taken from ChEMBL document CHEMBL1152699, “Taste-guided identification of high potency TRPA1 agonists from Perilla frutescens” (Bioorg Med Chem, 2009).
Activity calls are given as the source filed them. The calls are words filed in the database; no cut-off is given here.

Assays:
Assay type in all cases: functional, cell-based
[1] = target: Transient receptor potential cation channel subfamily M member 8 (Rattus norvegicus) (UniProt Q8R455); assay: (§1) Agonist activity at rat recombinant TRPM8 receptor expressed in HEK293 cells assessed as increase in intracellular calcium concentration by fluorimetric test
[2] = target: Transient receptor potential cation channel subfamily M member 8 (Rattus norvegicus, UniProt Q8R455); assay: as §1
[3] = target: Transient receptor potential cation channel subfamily M member 8 (Rattus norvegicus) (UniProt Q8R455); assay: Antagonist activity at rat recombinant TRPM8 receptor expressed in HEK293 cells assessed as inhibition of icilin-induced increase in intracellular calcium concentration at 200 uM preincubated […] before icilin treatment by fluorimetric test
[4] = target: Transient receptor potential cation channel subfamily A member 1 (Rattus norvegicus, UniProt Q6RI86); assay: Agonist activity at rat recombinant TRPA1 receptor expressed in HEK293 cells assessed as increase in intracellular calcium concentration by fluorimetric test
[5] = target: Transient receptor potential cation channel subfamily A member 1 (Rattus norvegicus) (UniProt Q6RI86); assay: Antagonist activity at rat recombinant TRPA1 receptor expressed in HEK293 cells assessed as inhibition of allylisothiocyanate-induced increase in intracellular calcium concentration preincubated for 5 mins by fluorimetric test
[6] = target: Transient receptor potential cation channel subfamily A member 1 (Rattus norvegicus) (UniProt Q6RI86); assay: Agonist activity at rat recombinant TRPA1 receptor expressed in HEK293 cells assessed as increase in intracellular calcium concentration by fluorimetric test relative to 100 uM allylisothiocyanate
[7] = target: Transient receptor potential cation channel subfamily M member 8 (Rattus norvegicus) (UniProt Q8R455); assay: Antagonist activity at rat recombinant TRPM8 receptor expressed in HEK293 cells assessed as inhibition of icilin-induced increase in intracellular calcium concentration at 200 uM preincubated for 5 mins before icilin treatment by fluorimetric test
[8] = target: Transient receptor potential cation channel subfamily A member 1 (Rattus norvegicus) (UniProt Q6RI86); assay: Agonist activity at rat recombinant TRPA1 receptor expressed in HEK293 cells assessed as increase in intracellular calcium concentration by fluorimetric test in presence of TRP channel blocker ruthenium red

Transient receptor potential cation channel subfamily A member 1, sequence (Q6RI86 whole entry): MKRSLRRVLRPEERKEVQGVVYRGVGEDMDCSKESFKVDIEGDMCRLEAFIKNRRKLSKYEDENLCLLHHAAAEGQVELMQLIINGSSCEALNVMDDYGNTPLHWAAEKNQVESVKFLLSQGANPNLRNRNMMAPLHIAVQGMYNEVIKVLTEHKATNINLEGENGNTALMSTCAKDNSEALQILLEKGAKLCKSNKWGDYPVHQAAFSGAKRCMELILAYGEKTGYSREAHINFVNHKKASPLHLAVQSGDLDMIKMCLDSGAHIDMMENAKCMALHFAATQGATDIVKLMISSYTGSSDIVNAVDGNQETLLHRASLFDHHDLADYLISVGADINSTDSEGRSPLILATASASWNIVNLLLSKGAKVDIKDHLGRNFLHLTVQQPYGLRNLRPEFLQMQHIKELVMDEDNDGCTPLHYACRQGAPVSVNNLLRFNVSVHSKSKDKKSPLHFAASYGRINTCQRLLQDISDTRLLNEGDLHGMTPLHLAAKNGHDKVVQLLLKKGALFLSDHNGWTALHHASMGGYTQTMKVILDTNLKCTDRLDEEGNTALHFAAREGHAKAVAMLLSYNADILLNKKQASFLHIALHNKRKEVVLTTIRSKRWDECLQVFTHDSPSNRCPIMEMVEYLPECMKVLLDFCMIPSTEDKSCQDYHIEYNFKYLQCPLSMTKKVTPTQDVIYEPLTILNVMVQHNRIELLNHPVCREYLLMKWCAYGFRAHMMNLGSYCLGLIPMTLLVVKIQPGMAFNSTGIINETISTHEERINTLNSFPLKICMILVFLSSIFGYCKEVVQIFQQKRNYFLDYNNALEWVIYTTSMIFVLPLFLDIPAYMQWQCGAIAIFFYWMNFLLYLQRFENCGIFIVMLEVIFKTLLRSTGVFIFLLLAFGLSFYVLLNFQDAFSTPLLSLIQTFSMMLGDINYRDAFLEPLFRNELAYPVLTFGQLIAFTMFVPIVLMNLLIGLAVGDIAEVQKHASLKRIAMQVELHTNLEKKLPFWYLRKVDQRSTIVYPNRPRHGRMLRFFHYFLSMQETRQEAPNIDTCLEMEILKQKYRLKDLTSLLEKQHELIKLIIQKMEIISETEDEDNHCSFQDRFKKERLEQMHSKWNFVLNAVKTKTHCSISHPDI
Transient receptor potential cation channel subfamily A member 1 (Rattus norvegicus), sequence (Q6RI86 whole entry): as above
Transient receptor potential cation channel subfamily M member 8 (Rattus norvegicus), sequence (Q8R455 whole entry, looked up): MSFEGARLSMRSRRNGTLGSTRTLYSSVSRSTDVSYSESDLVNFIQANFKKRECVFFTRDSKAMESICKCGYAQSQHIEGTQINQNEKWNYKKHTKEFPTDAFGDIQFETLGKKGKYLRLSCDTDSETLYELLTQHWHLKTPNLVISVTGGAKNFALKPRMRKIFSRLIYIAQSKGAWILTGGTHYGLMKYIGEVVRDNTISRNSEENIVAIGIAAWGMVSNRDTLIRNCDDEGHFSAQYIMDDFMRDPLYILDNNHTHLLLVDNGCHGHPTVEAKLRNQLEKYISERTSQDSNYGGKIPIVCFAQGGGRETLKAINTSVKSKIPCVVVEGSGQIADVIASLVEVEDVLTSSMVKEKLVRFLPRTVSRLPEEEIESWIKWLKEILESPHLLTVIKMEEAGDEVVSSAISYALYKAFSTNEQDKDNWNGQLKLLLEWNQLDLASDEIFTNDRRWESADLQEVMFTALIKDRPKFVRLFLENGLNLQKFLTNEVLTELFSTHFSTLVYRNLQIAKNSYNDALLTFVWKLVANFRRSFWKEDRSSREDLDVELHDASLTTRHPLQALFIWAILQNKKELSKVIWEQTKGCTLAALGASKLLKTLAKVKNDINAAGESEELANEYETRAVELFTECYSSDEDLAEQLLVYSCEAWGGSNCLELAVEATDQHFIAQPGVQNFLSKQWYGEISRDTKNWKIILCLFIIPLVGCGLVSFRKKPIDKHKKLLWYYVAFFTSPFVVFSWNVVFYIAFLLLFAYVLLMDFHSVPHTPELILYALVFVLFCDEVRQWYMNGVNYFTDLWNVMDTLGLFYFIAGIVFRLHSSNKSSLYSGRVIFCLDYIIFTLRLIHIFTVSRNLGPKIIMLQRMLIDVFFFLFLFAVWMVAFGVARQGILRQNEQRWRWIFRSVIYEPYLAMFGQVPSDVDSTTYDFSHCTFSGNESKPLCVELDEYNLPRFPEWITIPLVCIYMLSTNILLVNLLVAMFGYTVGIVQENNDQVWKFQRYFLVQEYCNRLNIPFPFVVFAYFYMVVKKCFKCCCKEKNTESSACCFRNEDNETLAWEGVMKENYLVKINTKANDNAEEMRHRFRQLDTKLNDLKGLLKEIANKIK
Transient receptor potential cation channel subfamily M member 8, sequence (Q8R455 whole entry): as the sequence (Q8R455 whole entry, looked up) above

Activity [1] | EC50 [2] [µM] | SMILES | Activity [3] | EC50 ([4]; read-out: EC50) [µM] | EC50 ([4]; read-out: pEC50 (converted)) [µM] | Activity [5] | Efficacy [6] [%] | inhibition [7] [%] | Activity [8]
Dose-dependent effect | 0.19 | O=C1NC(c2cccc([N+](=O)[O-])c2)=CCN1c1ccccc1O [ICILLIN] |  |  |  |  |  |  | 
 |  | CC(C)CCC(=O)c1ccoc1 [PERILLAKETONE] | Active | 19.7 | 40.7 | Active | 181 | 39.3 | inactive
 |  | C=C(C)C1CC=C(C=O)CC1 (stereo not given) [PERILLALDEHYDE] | Active | 41 | 19.5 |  | 74.6 | 64.3 | inactive
